Results as given in US9499790B2, “Method for promoting differentiation of pluripotent stem cells into cardiac muscle cells” (Kyoto University, priority 2010, dated 2016).

Key:
Monkey ES cells = assay: Cardiac muscle cell differentiation of monkey ES cells, 6-well plate, GFP expression observed at day 14; format: cell-based; conditions: for increase in the GFP expression level / effect of BIO on the compound's effect of cardiac muscle cell differentiation (GFP expression): GFP at day 14; for effect of BIO on the compound's effect of cardiac muscle cell differentiation (GFP expression): BIO 5 μM added together with the compound during day 4 to 10
From the text: In the same manner as Example 2, the effects of promoting cardiac muscle cell differentiation were compared among KY02111 and N11474, known Wnt signaling inhibitors (IWP2, XAV939 and IWR1), proteins known to be effective in promoting cardiac muscle cell differentiation (G-CSF, IGFBP4, Dkk1 and cytokines (a mixture of bFGF, BMP4, VEGF, DKK1 and Activin A)).
The effect of BIO, a Wnt signaling activator, on the effect of promoting cardiac muscle cell differentiation of KY02111, XAV939 and IWP2 was analyzed. […]

Human iPS (IMR90-4) = assay: Number of beating colonies of cardiac muscle cells; format: cell-based; conditions: N11474 10 μM during day 4 to 14
Experimental: (§1) The effect of promoting differentiation of each of the ES/iPS cells into cardiac muscle cells were confirmed for N11474 and KY02111 with the GFP expression level and number of beating colonies used as the indicators. Human ES cell line (Kh-1 line) (Suemori, H., et al., Efficient establishment of human embryonic stem cell lines and long-term maintenance with stable karyotype by enzymatic bulk passage. Biochem Biophys Res Commun. 345(3), 926-32 (2006)) (incorporated herein by reference) was seeded in a 6-well plate (Asahi Glass/5816-006: Ezview culture plate) in 1.2×10^6 cells/well and cultured for 22 days, with BMP4 (10 ng/ml) added during day 0 to 4 of culture and N11474 (10 μM) or KY02111 (5 μM) added during day 4 to 14 of culture. Human iPS cell lines (253G1, IMR90-1, IMR90-4 and RCHIPC0003) (Takahashi, K., et al., Induction of pluripotent stem cells from adult human fibroblasts by defined factors. Cell. 131(5), 861-72 (2007); Yu, J., et al., Induced pluripotent stem cell lines derived from human somatic cells. Science. 318(5858), 1917-20 (2007)) (these references are herein incorporated by reference) were cultured for the cardiac muscle cell differentiation in the same manner as for the human ES cells. The cardiac muscle cells from mouse ES cells (R1) were differentiated in accordance with the method described in the reference (Transient inhibition of BMP signaling by Noggin induces cardiomyocyte differentiation of mouse embryonic stem cells. Yuasa S, et al. Nat. Biotechnol. 2005 May; 23(5): 607-11; incorporated herein by reference). KY02111 (5 μM) was added for 3 days during day 6 to 9 of cardiac muscle cell differentiation culture and the beating colonies of cardiac muscle cells were analyzed at day 9. Monkey ES cells (CMK6.4) were cultured for cardiac muscle cell differentiation in the same manner as in the above (2).

[1] = tested on: Human ES cell line (Kh-1 line); assay: Cardiac muscle cell differentiation (GFP expression level, number of beating colonies); format: cell-based; conditions: N11474 10 μM during day 4 to 14
Experimental: as §1, with “The cardiac muscle cells from mouse ES cells (R1) were differentiated in accordance with the method described in the reference (Transient inhibition of BMP signaling by Noggin induces cardiomyocyte differentiation of mouse embryonic stem cells. Yuasa S, et al. Nat. Biotechnol. 2005 May; 23(5): 607-11; incorporated herein by reference).” left out, “Monkey ES cells (CMK6.4) were cultured for cardiac muscle cell differentiation in the same manner as in the above (2).” left out

[2] = tested on: monkey ES cell line (CMK 6.4 cynomolgus monkey ES cells); assay: Screening of library compounds: GFP expression under alpha-MHC promoter, 96-well plates; format: cell-based; conditions: about 1 to 5 μM compound/well during day 6 to 14; HCS system
Experimental: A vector expressing green fluorescent protein (GFP) under control of promoter of α-MHC gene, a marker of cardiac muscle cell differentiation, was introduced into monkey ES cell line (CMK 6.4 cynomolgus monkey ES cells) and the cells were seeded on 96-well culture plates (Greiner/655090: 96 well FIA black plate) in 5.0×10^3 cells/well, and cultured for 14 days in an IMDM-based differentiation medium for cardiac muscle cells (200 ml. IMDM (Sigma 13390) containing 50 ml bovine fetal serum (GIBCO 10099-141), 2.5 ml MEM non-essential amino acid solution (Sigma M7145), 2.5 ml penicillin-streptomycin (GIBCO 15140), 2.5 ml 200 mM L-glutamine, 2 μl 2-mercaptoethanol (Sigma M7522), 255 μl 5N NaOH). During day 6 to 14 of culture, 9,600 library compounds were added into separate wells (about 1 to 5 μM compound/well). Then, at […] of culture, GFP expression level was determined by using HCS (high contents screening) system (Molecular device/MetaMorph imaging system).

[3] = tested on: Wnt signaling target genes in human iPS cells; assay: Gene expression analysis by DNA array and quantitative polymerase chain reaction; format: cell-based; conditions: FIG. 9
Experimental: (in the order of the genes whose expression were reduced most 12 hours later) HOXA1, MSGN1, NKD1, T, TNFRSF11B, DKK1, DKK4, CDX2, MSX1, NODAL, FGF4, PAPPA, PRRX1, LRAT, CYP1B1, SLC34A2, AXIN2, LGL1, SPS, MIXL1, APCDD1 and DSEL. […] The analyzed genes were as follows: MSGN1, HOXA1; T, MIXL1; Dkk1, AXIN2; NODAL and FGF4 (all known as Wnt signaling target genes).

[4] = tested on: monkey ES cells (CMK 6.4 cynomolgus monkey ES cell line); assay: Cardiac muscle cell differentiation of monkey ES cells, compound day 4 to 8, GFP fluorescence at day 10 (MetaMorph); format: cell-based; conditions: for effect of promoting cardiac muscle cell differentiation, SO2031 versus SO3042: 0.4 μM and 2 μM, separate experiment; for effect of promoting cardiac muscle cell differentiation, carbon chain length (n) series: FIG. 16; for effect compared to SO3031 (KY01-I): low dose (0.1 μM)
From the text: Compounds substituted at the position R7 of Formula 1, which corresponds to Cl of KY02111, were synthesized and examined for the effect of promoting cardiac muscle cell differentiation in a dose-dependent manner in monkey ES cells as described in Example 2. Specifically, a vector expressing green fluorescent protein (GFP) under control of promoter of α-MHC gene, a marker of cardiac muscle cell differentiation, was introduced into monkey ES cells (CMK 6.4 cynomolgus monkey ES cell line) and the cells were seeded on 6-well culture plates (Asahi Glass/5816-006: Ezview culture plate) in 4.0×10^5 cells/well, and cultured in an IMDM-based differentiation medium for cardiac muscle cells (200 ml IMDM (Sigma) containing 50 ml bovine fetal serum (GIBCO), 2.5 ml MEM non-essential amino acid solution (Sigma), 2.5 ml penicillin-streptomycin (GIBCO), 2.5 ml 200 mM L-glutamine, 2 μl 2-mercaptoethanol). Each compound was added to the cells during day 4 to day 8 of the cardiac muscle cell differentiation culture, and the GFP fluorescence was analyzed at day 10 by using MetaMorph imaging system.

[5] = Solubility in medium (observation of crystals); format: physicochemical; conditions: after 24 hours
Experimental: SO2031 (KY02-I) was dissolved in 20% serum-containing medium (200 ml IMDM (Sigma) containing 50 ml bovine fetal serum (GIBCO), 2.5 ml MEM non-essential amino acid solution (Sigma), 2.5 ml penicillin-streptomycin (GIBCO), 2.5 ml 200 mM L-glutamine, 2 μl 2-mercaptoethanol) at 20 μM, and in serum-free medium (200 ml IMDM (Sigma) containing 2.5 ml MEM non-essential amino acid solution (Sigma), 2.5 ml penicillin-streptomycin (GIBCO), 2.5 ml 200 mM L-glutamine, 2 μl 2-mercaptoethanol) at 3 or 20 μM and observed after 24 hours (FIG. 20). […] As the compound is not crystallized, the concentration of the compound in the medium is stably maintained. Also, there is no possibility that the crystals affect the cells, and there is no risk that the crystals remained in the cells are transferred to and affect the host at transplantation.

[6] = tested on: human iPS cells (IMR90-1); assay: Percentage of cardiac muscle cells by flow cytometry with cardiac troponin T (cTnT) antibody; format: cell-based; conditions: 2 μM during days 3-8; 3 μM CHIR99021 first two days; without compound 3.7%
Experimental: (§2) The effect of promoting cardiac muscle cell differentiation of SO2031 (KY02-I) was confirmed using human ES cells (KhES-3) and iPS cells (IMR90-1) (FIG. 19). Induction of cardiac muscle cell differentiation was performed as described previously (Cell Reports, Volume 2, Issue 5, 1448-1460, 25 Oct. 2012). Specifically, IMDM (Sigma) containing 1% MEM non-essential amino acid solution (Sigma), 1% penicillin-streptomycin (Gibco), 2 mM L-glutamine (Sigma), 0.5 mM L-carnitine (Sigma), 0.001% 2-mercaptoethanol (Gibco), and 0.4% human serum albumin (Sigma) was used for culture. Cardiac muscle cell differentiation was induced in Ultra-low attachment culture dish (Corning) by floating culture. During the first two days, 3 μM CHIR99021, a WNT activator, was added, and during days 3-8 of culture, 2 μM SO2031 (KY02-I) was added. Efficiency of cardiac muscle cell differentiation was determined by calculating the percentage of cardiac muscle cells by flow cytometry using an antibody for cardiac troponin T (cTnT), a cardiac-specific marker molecule.

human ES cells (KhES-3) = assay: as above; format: cell-based; conditions: 2 μM during days 3-8; 3 μM CHIR99021 first two days; without compound 17.9%
Experimental: as §2

[7] = nitrovin 1 μM during day 8 to 12, singly

COc1ccc(CCC(=O)Nc2nc3ccc([N+](=O)[O-])cc3s2)cc1OC [KY01042, 2-(3-(3,4-dimethoxyphenyl)propanamide)-6-nitrobenzothiazole]
increase in the GFP expression level (Monkey ES cells; 10 μM during day 4 to 10): 7000%

COc1ccc2nc(NC(=O)Cc3ccc(OC)c(OC)c3)sc2c1 [N11474]
Beating cardiac muscle cell differentiation efficiency (Control (DMSO) = 100%) (Human iPS (IMR90-4)): 4000% (N11474)
Beating cardiac muscle cell differentiation efficiency (Control (DMSO) = 100%) ([1]; Human ES (Kh-1)): 1100% (N11474)
GFP expression level ([1]; at day 14 and after of culture, FIG. 6): significant increase
GFP expression level [2]: high GFP expression levels
increase in the GFP expression level (Monkey ES cells; 10 μM during day 4 to 10): 1000%

Cc1ccc2nc(NC(=O)CSc3nc4c(c(=O)n3-c3ccccc3)SCC4)sc2c1 [IWP2, reference compound]
expressions of MSGN1, HOXA1, T, MIXL1, Dkk1, AXIN2, NODAL and FGF4 (Wnt signaling target genes) by qPCR [3]: reduced
effect of BIO on the compound's effect of cardiac muscle cell differentiation (GFP expression) (Monkey ES cells): inhibited

COc1ccc(CCCC(=O)Nc2nc3ccc(I)cc3s2)cc1OC [SO3042, 2-(4-(3,4-dimethoxyphenyl)butamide)-6-iodobenzothiazole]
effect of promoting cardiac muscle cell differentiation, SO2031 versus SO3042 ([4]; 0.1 μM, FIG. 17): comparable effect
effect of promoting cardiac muscle cell differentiation, carbon chain length (n) series [4]: higher effect compared to KY02111
effect compared to SO2031 (KY02-I) ([4]; high dose (10 μM or 30 μM)): 1.3 times
effect of promoting cardiac muscle cell differentiation, SO3042 versus SO2031 ([4]; higher dose (10 μM), FIG. 17): slightly higher than that of SO2031
effect compared to SO3031 (KY01-I) [4]: 2.8 times

N=C(N)NN=C(/C=C/c1ccc([N+](=O)[O-])o1)/C=C/c1ccc([N+](=O)[O-])o1 [nitrovin, reference compound]
increase in the GFP expression level (Monkey ES cells; 5 μM during day 8 to 14): about 400%
increase in the GFP expression level versus Control (DMSO) (Monkey ES cells; [7]): about 3 times
proportion of beating colonies (Monkey ES cells; [7]): about 16%
ratio of number of GFP colonies (Monkey ES cells; [7]): about 22%

COc1ccc(CC(=O)Nc2nc3ccc(I)cc3s2)cc1OC [SO3031, 2-(2-(3,4-dimethoxyphenyl)acetamide)-6-iodobenzothiazole]
effect of promoting cardiac muscle cell differentiation, carbon chain length (n) series [4]: higher effect compared to KY02111

O=C1Nc2cc(Br)ccc2/C1=C1/Nc2ccccc2/C1=N\O [BIO, reference compound]
expressions of MSGN1, HOXA1, T, MIXL1, Dkk1, AXIN2, NODAL and FGF4 (Wnt signaling target genes) by qPCR [3]: increased

COc1ccc(CCC(=O)Nc2nc3ccc(I)cc3s2)cc1OC [SO2031, 2-(3-(3,4-dimethoxyphenyl)propanamid)-6-iodobenzothiazole]
effect of promoting cardiac muscle cell differentiation, times higher than that of KY02111 ([4]; 0.1 μM): about 16 times
effect of promoting cardiac muscle cell differentiation, times higher than that of SO087 ([4]; 0.1 μM): about 5.2 times
effect of promoting cardiac muscle cell differentiation, SO2031 versus SO3042 ([4]; 0.1 μM, FIG. 17): comparable effect
effect of promoting cardiac muscle cell differentiation, times higher than that of KY02111 ([4]; 1 μM): ~6.3 times
effect of promoting cardiac muscle cell differentiation, times higher than that of SO087 ([4]; 1 μM): ~2 times
effect of promoting cardiac muscle cell differentiation, times higher than that of KY02111 ([4]; 10 μM): ~2.1 times
effect of promoting cardiac muscle cell differentiation, times higher than that of SO087 ([4]; 10 μM): ~1.6 times
effect of promoting cardiac muscle cell differentiation, times higher than that of KY02111 ([4]; 30 μM): ~1.5 times
effect of promoting cardiac muscle cell differentiation, times higher than that of SO087 ([4]; 30 μM): ~1.1 times
effect of promoting cardiac muscle cell differentiation, carbon chain length (n) series [4]: higher effect compared to KY02111
effect compared to SO3031 (KY01-I) [4]: 2.7 times
crystals in medium ([5]; 20% serum-containing medium at 20 μM, serum-free medium at 3 or 20 μM): Large crystals were not observed
crystals in medium ([5]; serum-free medium, 3 μM): almost no crystal was observed
ratio of cardiac muscle cells (cTnT) [6]: 56.8%
ratio of cardiac muscle cells (cTnT) (human ES cells (KhES-3)): 77.9%

Oc1nc(-c2ccc(C(F)(F)F)cc2)nc2c1CSCC2 [XAV939, reference compound]
expressions of MSGN1, HOXA1, T, MIXL1, Dkk1, AXIN2, NODAL and FGF4 (Wnt signaling target genes) by qPCR [3]: reduced
effect of BIO on the compound's effect of cardiac muscle cell differentiation (GFP expression) (Monkey ES cells): inhibited

B1: G-CSF: granulocyte-colony stimulating factor (protein, UniProt P09919 31-207, looked up)
Granulocyte …: TPLGPASSLPQSFLLKCLEQVRKIQGDGAALQEKLVSECATYKLCHPEELVLLGHSLGIPWAPLSSCPSQALQLAGCLSQLHSGLFLYQGLLQALEGISPELGPTLDTLQLDVADFATTIWQQMEELGMAPALQPTQGAMPAFASAFQRRAGGVLVASHLQSFLEVSYRVLRHLAQP
increase in the GFP expression level (Monkey ES cells; 5 ng/ml during day 4 to 10): about 250%
